This is an account of results in patent US20180112006A1, “AGENTS, SYSTEMS AND METHODS FOR TREATING CANCER” (THE GENERAL HOSPITAL CORPORATION, priority 2015, published 2018).

The subject of assay [1] is hNSC-TR-TK. Nature of the assay: Ganciclovir eradication of modified human NSCs in vitro. Details: dose or concentration left out as unconfirmed. The class given is cell-based. How it is done:
(§1) (FIG. 6A) Plot showing the viability of MBr-FmC cells co-cultured with engineered human NSCs expressing TRAIL (TR), both TRAIL and HSV-TK (TR-TK) or GFP as measured by Fluc activity in vitro. (FIG. 6B) Plot showing the viability of modified human NSCs treated with ganciclovir (10 mg/ml). (FIG. 6C) Plot showing the viability of MBr-FmC cells co-cultured with engineered human MSC expressing TRAIL (TR), both TRAIL and HSV-TK (TR-TK) or GFP. (FIG. 6D) Plot showing the viability of modified human MSCs treated with ganciclovir (10 mg/ml).
(§2) To make the therapeutic strategy more clinically relevant, human NSCs and human MSCs were used and the efficacy of the TRAIL/thymidine kinase system on metastatic tumor cells was tested. Human NSCs and MSCs were engineered to express secreted TRAIL (hNSC-TR/hMSC-TR) or co-express secreted TRAIL and HSV-TK (hNSC-TR-TK/hMSC-TR-TK), and established co-cultures of MBr-FmC with different proportions of modified human NSCs and MSCs.

Assay [2] has as its system NSC-TR-TK-GF1 cells. The assay is described as follows: Ganciclovir eradication of NSC-TR-TK-GF1 in mouse brains, Fluc bioluminescence imaging. The class given is in vivo, mice. The note with it: for eradication of NSCs in non-tumor bearing brain: ganciclovir 75 mg/kg i.p. daily. How it is done:
Two hundred thousand NSC-TR-TK-GF1 cells were either intracranially or intracarotidly injected in nude mice. Seven days after intracranial injection, or 3 days after intracarotid injection, daily PBS or ganciclovir (75 mg/kg body weight) were administrated via intraperitoneal (i.p.) injection for 2 weeks. NSC fate was assessed by bioluminescence imaging at various time points. To assess the eradication of therapeutic NSC post-tumor treatment, MBr-RmC cells (50 000 cells/mouse) were intracranially injected in nude mice and tumor-bearing mice were injected intratumorally with NSC-TR-TK-GF1 (50 000 cells/mouse) in the mouse brain. Daily PBS or ganciclovir were administrated via intraperitoneal injection after 4 days of NSC injection and the fate of NSCs was assessed by bioluminescence imaging at different time points.

In assay [3] the test system is hMSC-TR-TK. Nature of the assay: Ganciclovir eradication of modified human MSCs in vitro. The class given is cell-based. Details: dose or concentration left out as unconfirmed. How it is done: as §1, §2
Assay [4] concerns NSC-TR-TK-GF1 cells. The assay is described as follows: Ganciclovir elimination of NSC-TR-TK-GF1 in vitro. Type of assay: cell-based, mouse. Particulars: 10 mg/ml GCV. How it is done:
(FIG. 11A) Representative phase and fluorescent images of NSC-TR-TK-GF1 in the presence or absence of 10 mg/ml GCV. Plot showing the Fluc activity of transduced cells in vitro. (FIG. 11B) Viability of MBr-FmC cells co-cultured with modified NSC at 1:1 ratio as measured by Fluc activity in vitro. The effects of NSC engineered with TK or TK-TR are shown. (FIG. 11C) Upper, outline of the experiment. Representative fluorescent images of metastatic MBr-RmC tumors in the mouse brain with or without NSC-TR-TK-GF1 administration to show post-tumor treatment (scale bar=100 μm).
To translate NSC-S-TRAIL therapy for brain metastasis into clinics, it is critical to follow the long-term fate of NSCs post-tumor treatment and ultimately, selectively eradicate therapeutic NSCs to avoid continuous access of therapeutic agent to normal brain tissue and to circumvent any malignant transformation of NSCs. To address this, NSC-S-TRAIL expressing cells were engineered to further express herpes simplex virus thymidine kinase (HSV-TK) and GFP-Fluc (GF1) (NSC-TR-TK-GF1) and tested for efficacy of thymidine kinase suicide therapy in vitro. […] Further, the efficacy of ganciclovir to eradicate NSCs in non-tumor bearing brain was tested. […] Next, the eradication of therapeutic NSCs post-tumor treatment in vivo was tested. NSC-TR-TK-GF1 expressing cells were intracranially injected into MBr-RmC tumor-bearing brains.

For assay [5], the system named is metastatic MBr cells. Nature of the assay: TRAIL killing of tumor cells versus normal cells. The class given is cell-based.

In the case of `Nc1nc(O)c2ncn(COC(CO)CO)c2n1` [ganciclovir], the “eradication of hNSC-TR-TK in vitro” value in assay [1] is listed as “successfully eradicated”. The “eradication of therapeutic NSCs post-tumor treatment” value in assay [2] (MBr-RmC tumor-bearing brains, vs PBS) is “eradication of therapeutic NSC-TR-TK-GF1”. Further, the “eradication of NSCs in non-tumor bearing brain” value in assay [2] (NSCs implanted via intracranial route) and in assay [2] (NSCs via intracarotid route) was “substantially eradicated” in each case. In addition, the “eradication of hMSC-TR-TK in vitro” value in assay [3] is listed as “successfully eradicated”. Further, in assay [4], the “elimination of modified NSC in vitro (Fluc, GFP)” value was “eliminated”.

Turning to TRAIL, the “killing of tumor cells versus normal cells” value in assay [5] is listed as “specifically killed the tumor cells instead of the normal cells”.
